Literature values in patent US20020006908A1, “ANTICONVULSANT DERIVATIVES USEFUL IN TREATING SCHIZOPHRENIA” (priority 1998, published 2002).

Tests used:
[1] = tested on: glutamate receptor
[2] = tested on: brain GABA activity
[3] = tested on: human epilepsy; conditions: adjunctive therapy or monotherapy, clinical trials of human epilepsy
[4] = tested on: rodent models of epilepsy; conditions: several rodent models of epilepsy
[5] = tested on: animal model of kindled epilepsy

effect on glutamate receptor activity [1]: reduced glutamate receptor activity
SMILES: CC1(C)O[C@@H]2[C@@H](CO[C@@]3(COS(N)(=O)=O)OC(C)(C)O[C@@H]23)O1 [topiramate, 2,3:4,5-bis-O-(1-methylethylidene)-β-D-fructopyranose sulfamate]
effect on brain GABA activity [2]: enhancement of brain GABA activity
efficacy in treating simple and complex partial seizures and secondarily generalized seizures [3]: effective
seizure block [4]: effectively block seizures
seizure block [5]: effectively block seizures
